14 compounds from patent publication US11845748B2, “Bicyclic pyridine N-oxide derivatives useful as a factor XIa inhibitors” (Janssen Pharmaceutica NV, priority 2021, dated 2023) can be followed below.

Chain of Factor XIa (P03951 388-625 limits assumed): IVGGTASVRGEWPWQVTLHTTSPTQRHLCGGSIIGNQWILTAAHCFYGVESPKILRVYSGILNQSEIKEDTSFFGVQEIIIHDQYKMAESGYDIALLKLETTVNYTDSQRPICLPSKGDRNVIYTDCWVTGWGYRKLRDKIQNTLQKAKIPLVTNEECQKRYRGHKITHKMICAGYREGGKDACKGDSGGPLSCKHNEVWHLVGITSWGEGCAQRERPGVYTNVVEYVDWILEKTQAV
Chain of Factor XIa (P03951 19-387 partner limits assumed): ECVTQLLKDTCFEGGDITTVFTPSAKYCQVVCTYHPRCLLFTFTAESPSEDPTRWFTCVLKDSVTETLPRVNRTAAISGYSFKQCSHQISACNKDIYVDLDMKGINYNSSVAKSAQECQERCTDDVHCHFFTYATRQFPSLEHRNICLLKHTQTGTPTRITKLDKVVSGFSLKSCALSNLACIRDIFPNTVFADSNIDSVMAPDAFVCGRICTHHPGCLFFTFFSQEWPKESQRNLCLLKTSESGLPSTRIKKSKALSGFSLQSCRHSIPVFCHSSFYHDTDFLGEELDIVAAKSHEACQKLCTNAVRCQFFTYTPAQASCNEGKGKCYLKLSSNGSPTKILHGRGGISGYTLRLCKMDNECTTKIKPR

For this test, the target named is Factor XIa (Homo sapiens, UniProt P03951). As to the kind of experiment: Factor XIa inhibition assay utilizing a fluorophore-quencher pair peptide substrate (FLINT). The test is classed as biochemical. The note with it: end point read at 30 min; 30 min preincubation; 5Fam-KLTRAETV-K5Tamra substrate; read-out: FXIa (EP) IC50. The source says:
Biological Example 1: Factor XIa Inhibition Assay Utilizing a Fluorophore-Quencher Pair Peptide Substrate
A fluorescence intensity (FLINT) based assay was used to monitor inhibition of Factor XIa. The peptide substrate, 5Fam-KLTRAETV-K5Tamra (purchased from New England Peptide) was chosen based on the […]. Conversion of zymogen […]. The custom peptide used in this assay was based on the Arg146 cleavage site of FXI. The peptide substrate was designed with a fluorophore-quencher pair, where the fluorescence is quenched until FXIa cleaves the 8-mer peptide after the Arg residue. The substrate KM was fit to a substrate inhibition model whereby kcat=0.86 s^−1, KM=12.4 μM, Ki=61.6 μM with an enzymatic efficiency, and kcat/KM=69523 M^−1s^−1.
The Factor XIa FLINT assay was used with the following 5Fam-KLTRAETV-K5Tamra assay buffer: 50 mM Tris, pH 7.5, 100 mM NaCl, 5 mM CaCl2, 0.1 mg/mL BSA, 0.03% CHAPS. Assay buffer was prepared by mixing all ingredients fresh. 5Fam-KLTRAETV-K5Tamra peptide substrate was first prepared at 10 mM in 100% DMSO, then diluted to 3 mM in 100% DMSO. Assay buffer was then added directly to the 3 mM stock of substrate to prepare the 30 μM 2× working concentration (15 μM final concentration). The 2× Factor XIa stock solution was prepared by diluting 6.562 μM stock in 1× assay buffer for a 200 pM working stock solution (100 pM final concentration).
Test compound(s) were run in an 11-point, 3-fold serial dilution with a final top compound concentration of 100 nM. Final DMSO in assay was 2%. FXIa was preincubated with compound for 30-minutes and then substrate was added to initiate the reaction. The assay was run with either end point (EP) reads at 30 min or kinetic (KIN) reads at 5 min intervals over 30 minutes. The time course was linear using 100 μM FXIa greater than 30 minutes. More specifically, the assay was run as follows: • 100 nL of 0.01 mM test compound was dispensed into black 384-well non-binding Greiner BioOne 784900 plate for 0.1 μM final concentration; • 5 μL of 1× assay buffer was dispensed to column 24 (low control) and 5 μL 2× Factor XIa solution was dispensed to columns 1-23 (column 23 high control); • the plate was centrifuged with a “cover” plate at 500 rpm for 1 min the plate was pre-incubated for 30 minutes at room temperature with plate covered; • 5 μL of 2× 5Fam-KLTRAETV-K5Tamra peptide substrate was dispensed into the entire plate, columns 1-24; • the plate was centrifuged with a “cover” plate at 500 rpm for 1 min; • the plate was read monitoring fluorescence intensity on the BMG PHERAStar at room temperature, using fluorescence module 485 nm/520 nm.
Percent inhibition (IC50) curves were generated per compound tested, and data was analyzed using a 4-parameter logistic fit using GeneData Screener. The relative fluorescence unit (RFU) values were normalized to percent inhibition using the following equation: % inhibition=((HC−LC)−(compound−LC)/(HC−LC))*100 where LC—low control=mean signal of no Factor XIa or 100% inhibition of Factor XIa; HC—high control=mean signal of Factor XIa+5Fam-KLTRAETV-K5Tamra peptide substrate with DMSO only.
An 11-point dose response curve for the test compound(s) was generated using GENDATA to determine IC50 value based on the following equation: Y=Bottom+(Top−Bottom)/(1+10^((log IC50−X)*HillSlope))
where Y is the % inhibition in the presence of X inhibitor concentration, Top=high control=mean signal of Factor XIa+5Fam-KLTRAETV-K5Tamra peptide substrate with DMSO only; Bottom=low control−mean signal of no Factor XIa or 100% inhibition of Factor XIa; HillSlope—Hill coefficient; and IC50=concentration of compound with 50% inhibition in relation to top/high control. […]
As usually defined, the IC50 is the concentration that gives 50% inhibition. As for `O=C(O)c1ccc(-c2ccn(C3CCc4cc(-c5cc(Cl)ccc5-n5cnnn5)c[n+]([O-])c43)n2)cc1` (racemic) [ID No. 3, 7-(3-(4-Carboxyphenyl)-1H-pyrazol-1-yl)-3-(5-chloro-2-(1H-tetrazol-1-yl)phenyl)-6,7-dihydro-5H-cyclopenta[b]pyridine 1-oxide], the IC50 turned out to be 320 nM.
The same measure for `O=C(O)c1cccc(-c2ccn(C3CCc4cc(-c5cc(Cl)ccc5-n5cnnn5)c[n+]([O-])c43)n2)c1` (racemic) [ID No. 4, 7-(3-(3-Carboxyphenyl)-1H-pyrazol-1-yl)-3-(5-chloro-2-(1H-tetrazol-1-yl)phenyl)-6,7-dihydro-5H-cyclopenta[b]pyridine 1-oxide]: 1010 nM; for `COC(=O)Nc1ccc(-c2ccn(C3CCc4cc(-c5cc(Cl)ccc5-n5cnnn5)c[n+]([O-])c43)n2)cc1` (racemic) [ID No. 5, 3-(5-Chloro-2-(1H-tetrazol-1-yl)phenyl)-7-(3-(4-((methoxycarbonyl)amino)phenyl)-1H-pyrazol-1-yl)-6,7-dihydro-5H-cyclopenta[b]pyridine 1-oxide]: 109 nM; for `O=C(O)c1cccc(-c2cnn(C3CCc4cc(-c5cc(Cl)ccc5-n5cnnn5)c[n+]([O-])c43)c2)c1` (racemic) [ID No. 6, 7-(4-(3-Carboxyphenyl)-1H-pyrazol-1-yl)-3-(5-chloro-2-(1H-tetrazol-1-yl)phenyl)-6,7-dihydro-5H-cyclopenta[b]pyridine 1-oxide]: 79 nM.
The same measure for `COC(=O)Nc1ccc(-c2cnn(C3CCc4cc(-c5cc(Cl)ccc5-n5cnnn5)c[n+]([O-])c43)c2)cc1` (racemic) [ID No. 7, 3-(5-Chloro-2-(1H-tetrazol-1-yl)phenyl)-7-(4-(4-((methoxycarbonyl)amino)phenyl)-1H-pyrazol-1-yl)-6,7-dihydro-5H-cyclopenta[b]pyridine 1-oxide]: 9 nM; for `Nc1ccc(-c2cnn(C3CCc4cc(-c5cc(Cl)ccc5-n5cnnn5)c[n+]([O-])c43)c2)c(F)n1` (racemic) [ID No. 10, 7-(4-(6-Amino-2-fluoropyridin-3-yl)-1H-pyrazol-1-yl)-3-(5-chloro-2-(1H-tetrazol-1-yl)phenyl)-6,7-dihydro-5H-cyclopenta[b]pyridine 1-oxide]: 27 nM; for `Nc1ccc(-c2cnn(C3CCc4cc(-c5c(-n6cnnn6)ccc(Cl)c5F)c[n+]([O-])c43)c2)c(F)n1` (racemic) [ID No. 11, 7-(4-(6-Amino-2-fluoropyridin-3-yl)-1H-pyrazol-1-yl)-3-(3-chloro-2-fluoro-6-(1H-tetrazol-1-yl)phenyl)-6,7-dihydro-5H-cyclopenta[b]pyridine 1-oxide]: 11 nM.
Turning to `Nc1ccc(-c2cnn(C3CCc4cc(-c5cc(Cl)ccc5-n5cnnn5)c[n+]([O-])c43)c2)cc1` (racemic) [ID No. 12, 7-(4-(4-Aminophenyl)-1H-pyrazol-1-yl)-3-(5-chloro-2-(1H-tetrazol-1-yl)phenyl)-6,7-dihydro-5H-cyclopenta[b]pyridine 1-oxide], the IC50 was determined as 220 nM.
The same measure for `COC(=O)Nc1ccc(-c2cnn(C3CCc4cc(-c5cc(Cl)ccc5OCC(F)(F)F)c[n+]([O-])c43)c2)cc1` (racemic) [ID No. 15, 3-(5-Chloro-2-(2,2,2-trifluoroethoxy)phenyl)-7-(4-(4-((methoxycarbonyl)amino)phenyl)-1H-pyrazol-1-yl)-6,7-dihydro-5H-cyclopenta[b]pyridine 1-oxide]: 1690 nM.
With `COC(=O)Nc1ccc(-c2cnn(C3CCc4cc(-c5c(-n6cnnn6)ccc(Cl)c5F)c[n+]([O-])c43)c2)cc1` (single isomer, unassigned) [ID No. 8, (R*)3-(3-Chloro-2-fluoro-6-(1H-tetrazol-1-yl)phenyl)-7-(4-(4-((methoxycarbonyl)amino)phenyl)-1H-pyrazol-1-yl)-6,7-dihydro-5H-cyclopenta[b]pyridine 1-oxide], the half-maximal inhibitory concentration (IC50) came out at 3260 nM.
For `COC(=O)Nc1ccc(-c2cn(C3CCc4cc(-c5c(-n6cnnn6)ccc(Cl)c5F)c[n+]([O-])c43)nc2C)cc1` (single isomer, unassigned) [ID No. 13, (R*)3-(3-Chloro-2-fluoro-6-(1H-tetrazol-1-yl)phenyl)-7-(4-(4-((methoxycarbonyl)amino)phenyl)-3-methyl-1H-pyrazol-1-yl)-6,7-dihydro-5H-cyclopenta[b]pyridine 1-oxide], the IC50 stood at 837 nM.
To `COC(=O)Nc1ccc(-c2cn(C3CCc4cc(-c5c(-n6cnnn6)ccc(Cl)c5F)c[n+]([O-])c43)nc2C)cc1` (single isomer, unassigned) [ID No. 14, (S*)-3-(3-Chloro-2-fluoro-6-(1H-tetrazol-1-yl)phenyl)-7-(4-(4-((methoxycarbonyl)amino)phenyl)-3-methyl-1H-pyrazol-1-yl)-6,7-dihydro-5H-cyclopenta[b]pyridine 1-oxide] belongs 16 nM.
The same measure for `O=C(O)c1ccc2nn(C3CCc4cc(-c5cc(Cl)ccc5-n5cnnn5)c[n+]([O-])c43)cc2c1` (centres unmarked) [ID No. 1, 7-(5-Carboxy-2H-indazol-2-yl)-3-(5-chloro-2-(1H-tetrazol-1-yl)phenyl)-6,7-dihydro-5H-cyclopenta[b]pyridine 1-oxide]: 2850 nM; for `COC(=O)Nc1ccc(-c2cnn([C@@H]3CCc4cc(-c5c(-n6cnnn6)ccc(Cl)c5F)c[n+]([O-])c43)c2)cc1` [ID No. 9, (R)-3-(3-chloro-2-fluoro-6-(1H-tetrazol-1-yl)phenyl)-7-(4-(4-((methoxycarbonyl)amino)phenyl)-1H-pyrazol-1-yl)-6,7-dihydro-5H-cyclopenta[b]pyridine 1-oxide]: 3 nM.
